Laboratory results: US20250257060A1, “OXADIAZOLE COMPOUND, PHARMACEUTICAL COMPOSITION COMPRISING SAME, AND USE THEREOF” (SUZHOU GENHOUSE BIO CO., LTD., priority 2022, published 2025)
Where two headings read alike, the source gives them in different places.

How the values were obtained:
HDAC6 = HDAC6 (Homo sapiens (Human), UniProt Q9UBN7); test: HDAC6 enzymatic activity assay; format: biochemical
Method in brief: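 Recombinant HDAC6 with compound and Ac-GAK(Ac)-AMC substrate ([…]), 37° C. for 30 min, then developed with trypsin plus TSA for 15 min at room temperature. IC50 from curve fitting.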

[1] = Phase I metabolic stability in monkey liver microsomes (CLMs); format: in vitro ADME, cynomolgus monkeys; parameters: microsomal CLint: dose or concentration left out as unconfirmed; conditions: CLM; for Remaining rate (NCF = 60 min): buffer instead of NADPH regeneration system; for Remaining rate (T = 60 min): with NADPH; for CLint scaled at 1 µM / half-life at 1 M / microsomal CLint: cynomolgus monkey, liver microsomes, pH 7.4; for microsomal CLint: read-out: CLint (mic)
Protocol: Phase I metabolic stability of the test compounds in liver microsomes of CD-1 mice (MLMs), Sprague-Dawley rats (RLMs), beagle dogs (DLMs), cynomolgus monkeys (CLMs), and humans (HLMs) was evaluated.
The animal and human liver microsomes used in the test system were purchased from Xenotech, Corning, or other qualified suppliers and stored in a freezer at a temperature below −60° C. prior to use.
The test samples and control compounds were separately incubated with animal and human liver microsomes at 37±1° C. for a period of incubation time up to 60 min. The samples were removed at the indicated time points, and the reaction was stopped with acetonitrile or other organic solvents containing an internal standard. After centrifugation, the resulting supernatants were assayed by liquid chromatography-tandem mass spectrometry (LC-MS/MS).
73.21 g of dipotassium hydrogenphosphate trihydrate and 10.78 g of potassium dihydrogenphosphate were dissolved in 4000 mL of ultrapure water. The solution was adjusted to pH 7.40±0.10 with 10% phosphoric acid or 1 M potassium hydroxide to make a final concentration of 100 mM.
The test sample powder was prepared into a stock solution at a certain concentration with DMSO or other organic solvents, which was then further diluted with a proper organic solvent.
Microsomes of each species were diluted into a 2× working solution with a 100 mM potassium phosphate buffer. The final concentration of the microsomes in the reaction system was 0.5 mg/mL.
An appropriate amount of nicotinamide adenine dinucleotide phosphate (NADP) and isocitric acid (ISO) powder was weighed out, dissolved in a magnesium chloride solution, and shaken and mixed well. An appropriate amount of isocitrate dehydrogenase (IDH) was added, and the mixture was mixed well by gently turning upside down. The final concentrations in the reaction system were: 1 mM NADP, 1 mM magnesium chloride, 6 mM ISO, and 1 unit/mL IDH.
Incubation was performed in a 96-well plate. Eight incubation plates were prepared and designated T0, T5, T15, T30, T45, T60, Blank60, and NCF60, respectively. The first 6 plates corresponded to reaction time points of 0, 5, 15, 30, 45, and 60 min, respectively. No test sample or control compound was added to the Blank60 plate, and samples were taken after 60 min of incubation. In the NCF60 plate, incubation was performed for 60 min using the potassium phosphate buffer instead of the NADPH regeneration system solution. Three replicates were made for samples in all conditions.
The microsomes and the test sample or control compound were mixed, and then the incubation plates Blank60, T5, T15, T30, T45, and T60 except for TO and NCF60 were placed in a 37° C. water bath for pre-incubation for about 10 min. In the incubation plate TO, a stop solution was first added, followed by addition of the NADPH regeneration system working solution, and 98 μL of the potassium phosphate buffer was added to each sample well of the incubation plate NCF60 to initiate the reaction. After the pre-incubations of the incubation plates Blank60, T5, T15, T30, T45, and T60 were completed, 98 μL of the NADPH regeneration system working solution was added to each sample well to initiate the reaction. The reaction temperature was 37±1° C., the final volume of the reaction was 200 μL, and the reaction system included 0.5 mg/mL microsomes, […], 1 mM NADP, 6 mM ISO, and 1 unit/mL IDH.
At 5 min, 15 min, 30 min, 45 min, and 60 min, a cold stop solution containing an internal standard was added to the reaction plate to stop the reaction.
All the reaction plates after the reaction was stopped were shaken well and centrifuged at 3220×g at 4° C. for 20 min. After the supernatant was diluted according to a certain proportion, LC-MS/MS analysis was performed.
Sample analysis was performed by the liquid chromatography-tandem mass spectrometry (LC-MS/MS) method without standard curves and quality control samples. […]

[2] = Pharmacokinetic test in mice (IV and PO); format: in vivo, BALB/c mice; conditions: for Cmax / AUC(0-inf) / AUC(0-t) / MRT inf / Vd / Tmax: BALB/c, mouse, plasma; for MRT inf: read-out: MRT(0-∞); for Vd: read-out: Vz
Method in brief: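 BALB/c mice (3 per group) given single IV or intragastric doses; blood sampled orbitally at 0.25–24 h into K2-EDTA tubes for plasma. Concentrations measured by LC-MS/MS; parameters from non-compartmental analysis with linear-log trapezoidal method.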

[3] = po, 10 mg/kg, read-out: C0/Cmax
[4] = po, 100 mg/kg, read-out: C0/Cmax
[5] = mice, PO 30 mg/kg (Cmax), read-out: C0/Cmax

Sequence of HDAC6 (Q9UBN7 whole entry): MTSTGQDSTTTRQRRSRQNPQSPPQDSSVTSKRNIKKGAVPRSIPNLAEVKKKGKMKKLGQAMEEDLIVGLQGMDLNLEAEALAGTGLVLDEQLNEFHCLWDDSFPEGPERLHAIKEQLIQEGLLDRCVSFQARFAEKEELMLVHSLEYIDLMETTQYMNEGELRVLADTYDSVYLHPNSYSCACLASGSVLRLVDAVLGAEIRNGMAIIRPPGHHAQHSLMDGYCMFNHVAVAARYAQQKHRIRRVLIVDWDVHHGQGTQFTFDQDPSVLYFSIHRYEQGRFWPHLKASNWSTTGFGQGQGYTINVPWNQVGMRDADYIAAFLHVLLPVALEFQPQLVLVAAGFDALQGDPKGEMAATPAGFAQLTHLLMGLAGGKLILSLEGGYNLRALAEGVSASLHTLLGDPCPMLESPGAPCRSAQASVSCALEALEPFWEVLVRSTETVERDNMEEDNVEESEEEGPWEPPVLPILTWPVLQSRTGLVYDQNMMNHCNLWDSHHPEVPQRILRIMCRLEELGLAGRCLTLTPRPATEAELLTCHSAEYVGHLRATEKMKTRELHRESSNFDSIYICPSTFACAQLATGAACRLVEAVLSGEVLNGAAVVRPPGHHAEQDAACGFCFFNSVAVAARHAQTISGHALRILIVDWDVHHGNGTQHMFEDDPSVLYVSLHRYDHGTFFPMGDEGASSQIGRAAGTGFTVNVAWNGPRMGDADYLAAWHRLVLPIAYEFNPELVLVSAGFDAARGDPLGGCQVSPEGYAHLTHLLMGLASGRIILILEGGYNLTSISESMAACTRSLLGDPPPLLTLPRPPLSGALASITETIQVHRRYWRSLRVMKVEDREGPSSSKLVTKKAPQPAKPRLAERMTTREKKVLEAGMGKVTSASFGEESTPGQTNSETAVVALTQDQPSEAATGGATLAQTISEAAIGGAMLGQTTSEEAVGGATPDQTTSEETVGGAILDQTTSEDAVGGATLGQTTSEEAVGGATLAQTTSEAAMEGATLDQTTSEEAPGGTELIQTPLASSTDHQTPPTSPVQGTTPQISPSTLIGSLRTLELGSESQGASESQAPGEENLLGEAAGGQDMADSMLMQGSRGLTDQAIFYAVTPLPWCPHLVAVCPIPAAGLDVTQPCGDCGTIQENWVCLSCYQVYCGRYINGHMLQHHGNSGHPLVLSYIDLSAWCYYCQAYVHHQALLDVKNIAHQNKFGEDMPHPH

SMILES	IC50 (HDAC6) [nM]	Remaining rate (NCF = 60 min) [1] [%]	Remaining rate (T = 60 min) [1] [%]	CLint scaled at 1 µM [1] [mL/min/kg]	half-life at 1 M [1] [h]	microsomal CLint [1] [µL/min/mg]	Cmax [2, 3] [µM]	AUC(0-inf) ([2]; mice, IV 2 mg/kg) [µM·h]	AUC(0-t) ([2]; mice, IV 2 mg/kg) [µM·h]	Cmax ([2]; mice, IV 2 mg/kg (C0)) [µM]	MRT inf ([2]; mice, IV 2 mg/kg) [h]	Vd ([2]; mice, IV 2 mg/kg) [L/kg]	AUC(0-inf) ([2]; mice, PO 10 mg/kg) [µM·h]	AUC(0-t) ([2]; mice, PO 10 mg/kg) [µM·h]	Tmax ([2]; mice, PO 10 mg/kg) [h]	MRT inf ([2]; mice, PO 10 mg/kg) [h]	CLz ([2]; mice, IV 2 mg/kg) [mL/min/kg]	t½z ([2]; mice, IV 2 mg/kg) [h]	F ([2]; mice, PO 10 mg/kg) [%]	t½z ([2]; mice, PO 10 mg/kg) [h]	also measured
CC(F)(F)C(=O)N[C@@H]1CCCC[C@H]1N1Cc2ccc(-c3nnc(C(F)F)o3)cc2S1(=O)=O [Compound 1]	59	94.8	79.1	< 13	> 2.42	< 9.6	8.97	9.88	9.88	4.52	2.19	0.684	45.2	45.2	1	3.35	7.1	1.062	91.46	0.919	Cmax [2, 4]: 30.5 µM; AUC(0-inf) ([2]; mice, PO 30 mg/kg): 73.1 µM·h; AUC(0-t) ([2]; mice, PO 30 mg/kg): 73.1 µM·h; Tmax ([2]; mice, PO 30 mg/kg): 0.417 h; Cmax [2, 5]: 17.5 µM; MRT inf ([2]; mice, PO 30 mg/kg): 3.65 h; AUC(0-inf) ([2]; mice, PO 100 mg/kg): 171 µM·h; AUC(0-t) ([2]; mice, PO 100 mg/kg): 171 µM·h; Tmax ([2]; mice, PO 100 mg/kg): 1.5 h; MRT inf ([2]; mice, PO 100 mg/kg): 3.71 h; F ([2]; mice, PO 30 mg/kg): 49.31%; t½z ([2]; mice, PO 30 mg/kg): 0.918 h; F ([2]; mice, PO 100 mg/kg): 34.72%; t½z ([2]; mice, PO 100 mg/kg): 1.292 h
O=C(N[C@@H]1CCCC[C@H]1N1Cc2ccc(-c3nnc(C(F)F)o3)cc2S1(=O)=O)C(F)F [Compound 2]	–	101.5	88.8	< 13	> 2.42	< 9.6	13.9	12.6	12.6	6.75	2.35	0.55	77.8	77.7	0.5	4.5	6	1.01	123.92	1.62	Cmax [2, 4]: 87.9 µM; AUC(0-inf) ([2]; mice, PO 30 mg/kg): 182 µM·h; AUC(0-t) ([2]; mice, PO 30 mg/kg): 182 µM·h; Tmax ([2]; mice, PO 30 mg/kg): 0.67 h; Cmax [2, 5]: 35 µM; MRT inf ([2]; mice, PO 30 mg/kg): 3.66 h; AUC(0-inf) ([2]; mice, PO 100 mg/kg): 601 µM·h; AUC(0-t) ([2]; mice, PO 100 mg/kg): 601 µM·h; Tmax ([2]; mice, PO 100 mg/kg): 1.33 h; MRT inf ([2]; mice, PO 100 mg/kg): 4.33 h; F ([2]; mice, PO 30 mg/kg): 96.93%; t½z ([2]; mice, PO 30 mg/kg): 0.87 h; F ([2]; mice, PO 100 mg/kg): 95.71%; t½z ([2]; mice, PO 100 mg/kg): 0.81 h
O=C(N[C@H]1[C@H](N2Cc3ccc(-c4nnc(C(F)F)o4)cc3S2(=O)=O)CCCC1(F)F)C(F)F [Compound 61]	63	–	–	–	–	–	12.6	15.4	12.8	4.52	4.38	1.18	73.4	57	1	5.3	4.35	3.12	89.2	3.551	–
